Results taken from patent publication US20090214578A1, “Immunostimulatory Single-Stranded Ribonucleic Acid with Phosphodiester Backbone” (priority 2005, published 2009).
Strand notation (5' to 3'): a small letter for the sugar, then the base; units joined by * are phosphorothioate-linked, units joined directly phosphodiester-linked; [ ] holds rarer units or linkages, { } end groups; capitals alone tell only the bases. r = 2'-OH (RNA)

What was measured:
[1] = system: pDC, TLR9-single deficient cells; assay: Recognition of ssRNA by pDC, TLR9-single deficient cells; type: cell-based, murine
Source text: (§1) To further investigate the role of TLR9 in the recognition of PD ssRNA, various RNA sequences, such as RNA41 (5′-[…]-3′; SEQ ID NO:4) and RNA42 (5′-[…]-3′; SEQ ID NO:5) that have been previously described as not active in murine cells when synthesized with a PTO backbone (Heil, Hemmi et al. 2004), were synthesized.

[2] = system: pDC, TLR7-single deficient cells; assay: Recognition of ssRNA by pDC, TLR7-single deficient cells; type: cell-based, murine
Source text: as §1

[3] = system: pDC, wild-type cells; assay: Recognition of ssRNA by pDC, wild-type cells; type: cell-based, murine; conditions: for Recognition by pDC: wild-type cells
Source text: as §1

[4] = system: Wild-type FLT3-L-induced DCs; assay: IL-12 secretion of siRNA-treated wild-type FLT3-L-induced DCs on ssRNA stimulation; type: cell-based, murine; conditions: wild-type FLT3-L-induced DCs treated with mTLR8-specific siRNA; for reduction in IL-12 secretion in mTLR8-specific siRNA-treated cells: then stimulated with the ORN
Source text: (§2) The reduction in RNA63-driven immune activation correlated with siRNA-driven downregulation of mTLR8 RNA.

[5] = system: murine cells; conditions: synthesized with a PTO backbone; Heil, Hemmi et al. 2004; cited from earlier work
[6] = system: peripheral blood mononuclear cells from TLR7−/− mice; assay: IL-12p40 ELISA on supernatants of peripheral blood mononuclear cells, TLR7−/− mice; type: cell-based; conditions: TLR 7−/− cells, added with DOTAP, 24 hours, FIG. 2
Method: (§3) Peripheral blood mononuclear cells were isolated from wild-type and TLR7−/− mice, transferred into suitable growth medium, and then aliquoted separately into individual wells of multiwell culture plates. The following agents were added to individual wells of cells: RNA63 PD, a single-stranded ORN having a nucleotide sequence provided as 5′-CAGGUCUGUGAU-3′ (SEQ ID NO:1), in which all internucleotide linkages are phosphodiester except for a phosphorothioate linkage between the A and U at the 3′ end of the ORN; RNA63 PTO, a single-stranded ORN having the same nucleotide sequence as SEQ ID NO: 1, in which every internucleotide linkage is phosphorothioate; CpG-ODN 1668, an oligodeoxynucleotide having a nucleotide sequence provided as 5′-[…]-3′ (SEQ ID NO:2); DOTAP alone; R-848; RNA63 PTO plus DOTAP; RNA63 PD plus DOTAP; and medium alone. Cells were maintained in culture for 24 hours, and then supernatants from individual wells collected and analyzed using enzyme-linked immunosorbent assay (ELISA) specific for IL-12p40. Data are presented as mean±SEM.

[7] = system: TLR7−/− FLT3-L-induced dendritic cells; assay: FACS for CD69 on FLT3-L-induced dendritic cells, TLR7−/−; type: cell-based, mice; conditions: with DOTAP, 24 hours, FIG. 4
Method: (§4) FLT3-L-induced dendritic cells were prepared from wild-type and TLR7−/− mice and cultured for 24 hours in the presence of RNA63 PD or RNA63 PTO, each with DOTAP, as in Example 2. After 24 hours incubation, cells were collected and analyzed by FACS for CD69.

[8] = system: TLR7−/− GM-CSF-derived dendritic cells; assay: IL-12p40 ELISA, GM-CSF-derived dendritic cells, TLR7−/−; type: cell-based, mice; conditions: with DOTAP, 24 hours, FIG. 5
Method: (§5) M-CSF-derived macrophages and GM-CSF-derived dendritic cells were prepared from wild-type and TLR7−/− mice and cultured for 24 hours in the presence of RNA63 PD plus DOTAP, RNA63 PTO plus DOTAP. LPS, R-848, CpG-ODN 1668, CpG-ODN 2216, DOTAP alone, or medium alone. Culture supernatants were then collected and analyzed using ELISA for IL-12p40. Data are presented as mean±SEM.

[9] = system: TLR7−/− M-CSF-derived macrophages; assay: IL-12p40 ELISA, M-CSF-derived macrophages, TLR7−/−; type: cell-based, mice; conditions: with DOTAP, 24 hours, FIG. 5
Method: as §5

[10] = system: MyD88−/− dendritic cells; assay: IL-12p40 ELISA, FLT3-L-induced dendritic cells, MyD88−/−; type: cell-based, mice; conditions: with DOTAP, 24 hours, FIG. 6
Method: (§6) FLT3-L-induced dendritic cells were separately prepared from wild-type, TLR7−/−, and MyD88−/− mice and cultured for 24 hours in the presence of RNA63 PD or RNA63 PTO, each with DOTAP, as in Example 2. After 24 hours incubation, cells were collected and analyzed by ELISA for IL-12p40 and by FACS for CD69.

[11] = system: MyD88−/− dendritic cells; assay: FACS for CD69, FLT3-L-induced dendritic cells, MyD88−/−; type: cell-based, mice; conditions: with DOTAP, 24 hours, FIG. 6
Method: as §6

[12] = system: wild-type FLT3-L-induced dendritic cells; assay: Cytokine ELISA (IL-12p40, IL-6, IFN-α), FLT3-L-induced dendritic cells, wild-type; type: cell-based, mice; conditions: with DOTAP, 24 hours; for IL-12p40 induction: FIG. 3A; for IL-6 induction: FIG. 3B; for IFN-α induction: FIG. 3C
Method: (§7) FLT3-L-induced dendritic cells were prepared from wild-type and TLR7−/− mice and cultured in the presence of varied amounts of RNA63 PD or RNA63 PTO, each with DOTAP. After 24 hours incubation, supernatants were collected and analyzed by ELISA for IL-12p40, IL-6, and IFN-α. LPS, R-848, CpG-ODN 1668, CpG-ODN 2216 (5′-GGGGGACGATCGTCGGGGG-3′, SEQ ID NO:3), DOTAP alone, and medium alone were run as controls. Data are presented as mean±SEM.

[13] = system: M-CSF-derived macrophages from wild-type mice; assay: IL-12p40 ELISA, M-CSF-derived macrophages, wild-type; type: cell-based; conditions: with DOTAP, 24 hours, FIG. 5
Method: as §5

[14] = system: peripheral blood mononuclear cells from wild-type mice; assay: IL-12p40 ELISA on supernatants of peripheral blood mononuclear cells, wild-type mice; type: cell-based; conditions: added with DOTAP, 24 hours, FIG. 2
Method: as §3

[15] = system: wild-type FLT3-L-induced dendritic cells; assay: FACS for CD69 on FLT3-L-induced dendritic cells, wild-type; type: cell-based, mice; conditions: with DOTAP, 24 hours, FIG. 4
Method: as §4

[16] = system: GM-CSF-derived dendritic cells from wild-type mice; assay: IL-12p40 ELISA, GM-CSF-derived dendritic cells, wild-type; type: cell-based; conditions: with DOTAP, 24 hours, FIG. 5
Method: as §5

[17] = system: TLR7−/− FLT3-L-induced dendritic cells; assay: Cytokine ELISA (IL-12p40, IL-6, IFN-α), FLT3-L-induced dendritic cells, TLR7−/−; type: cell-based, mice; conditions: for IFN-α induction / IL-6 induction / IL-12p40 induction: with DOTAP, 24 hours
Method: as §7

[18] = system: TLR9-deficient mDC; assay: IL-12p40 production by TLR9-deficient mDC; type: cell-based, murine
Source text: as §1

[19] = system: murine cells; assay: Stimulatory capacity of ORN with PTO or PD backbone in murine cells; type: cell-based; conditions: TLR7-independent fashion
Source text: as §1

[20] = system: human PBMCs; assay: Stimulatory capacity of ORN with PTO or PD backbone in human PBMCs; type: cell-based
Source text: as §1

[21] = system: TLR7-deficient mDC; assay: IL-12p40 production by TLR7-deficient mDC; type: cell-based, murine; conditions: TLR7-single deficient mDC
Source text: as §1

[22] = system: TLR3/TLR7 double deficient FLT3-L-induced DCs; assay: ssRNA stimulation of TLR3/TLR7 double deficient FLT3-L-induced DCs; type: cell-based, mice
Source text: (§8) Since the ssRNA-driven TLR7-independent immune stimulation is dependent on MyD88 and endosomal maturation, it was hypothesized that other intracellular TLRs are involved. TLR3 seems a poor candidate for the recognition of ssRNA since it mainly relies on the adaptor molecule TRIF and not MyD88 (Hoebe, Du et al. 2003). Nevertheless, to rule out TLR3 as receptor for ssRNA, TLR3- and TLR7-deficient mice were crossed to obtain TLR3/TLR7 double deficient mice, and immune cells from these mice were tested for ssRNA stimulation. […] TLR7/TLR9 double deficient mice were also generated to investigate the involvement of TLR9 in RNA63 recognition.

[23] = system: TLR7-deficient FLT3-L-induced DCs; assay: RNA63-induced activation of siRNA-transfected TLR7-deficient FLT3-L-induced DCs; type: cell-based, murine
Source text: as §2

[24] = system: TLR7/TLR9 double deficient GM-CSF-derived DCs; assay: ssRNA stimulation of TLR7/TLR9 double deficient GM-CSF-derived DCs; type: cell-based, mice
Source text: as §8

[25] = system: TLR7/TLR9 double deficient sorted mDCs; assay: ssRNA stimulation of TLR7/TLR9 double deficient sorted mDCs; type: cell-based, mice
Source text: as §8

5′-GCCCGACAGAAGAGAGACAC-3′ (listed as RNA, chemistry not fully specified) [RNA41, PTO in the cited result, probably PD in pDC and siRNA tests]
Response of pDC [1]: failed to respond | Response of pDC [2]: failed to respond | Recognition by pDC [3]: also recognized | reduction in IL-12 secretion in mTLR8-specific siRNA-treated cells [4]: 75% | Activity in murine cells [5]: not active

5′-CAGGUCUGUGAU-3′ [RNA63 PD] (one 3' phosphorothioate linkage, chemistry not fully specified)
IL-12p40 induction [6]: induced IL-12p40 | CD69 induction [7]: induced CD69 | IL-12p40 induction [8]: induced significant amounts of IL-12p40 | IL-12p40 induction [9]: induced significant amounts of IL-12p40 | induction of IL-12p40 [10]: absent | induction of CD69 [11]: absent | IL-12p40 induction [12]: induced significant amounts | IL-6 induction [12]: induced significant amounts | IFN-α induction [12]: induced significant amounts | IL-12p40 induction [13]: induced significant amounts of IL-12p40 | IL-12p40 induction [14]: induced IL-12p40 | CD69 induction [15]: induced significant amounts of CD69 | IL-12p40 induction [16]: induced significant amounts of IL-12p40 | Dependence of the amount of IL-12p40 induced on concentration ([17]; varied amounts of ORN with DOTAP): varied in proportion to the concentration | IFN-α induction [17]: albeit less strongly | IL-6 induction [17]: albeit less strongly | IL-12p40 induction [17]: induced IL-112p40

5′-ACCCAUCUAUUAUAUAACUC-3′ (listed as RNA, chemistry not fully specified) [RNA42 PD]
IL-12p40 production [18]: failed to produce IL-12p40 | IFN-α stimulation [19]: stimulate | IL-6 stimulation [19]: stimulate | IL-12p40 stimulation [19]: stimulate | IFN-α stimulation [20]: no IFN-α | TNF-α stimulation [20]: stimulate

5′-ACCCAUCUAUUAUAUAACUC-3′ (listed as RNA, chemistry not fully specified) [RNA42, PTO in the cited result, probably PD in pDC and siRNA tests]
Response of pDC [1]: failed to respond | Response of pDC [2]: failed to respond | Recognition by pDC [3]: also recognized | reduction in IL-12 secretion in mTLR8-specific siRNA-treated cells [4]: 50% | Activity in murine cells [5]: not active

5′-GCCCGUCUGUUGUGUGACUC-3′ [RNA40, reference compound]
IL-12p40 production [18]: induced some IL-12p40 | TLR dependence of recognition by pDC ([3]; GU-rich RNA): TLR7-dependent fashion | Influence of mTLR8-specific siRNA on stimulation [4]: not influenced | IL-12p40 production [21]: induced some IL-12p40

5′-GCCCGACAGAAGAGAGACAC-3′ (listed as RNA, chemistry not fully specified) [RNA41 PD]
IL-12p40 production [18]: failed to produce IL-12p40 | IFN-α stimulation [19]: stimulate | IL-6 stimulation [19]: stimulate | IL-12p40 stimulation [19]: stimulate | IFN-α stimulation [20]: no IFN-α | TNF-α stimulation [20]: stimulate

5′-CAGGUCUGUGAU-3′ [RNA63 PTO] (rC*rA*rG*rG*rU*rC*rU*rG*rU*rG*rA*rU) [reference compound]
IL-12p40 induction [6]: not | CD69 induction [7]: not | IL-12p40 induction [8]: not | IL-12p40 induction [9]: not | induction of IL-12p40 [10]: absent | induction of CD69 [11]: absent | IL-12p40 induction [12]: induced significant amounts | IL-6 induction [12]: induced significant amounts | IFN-α induction [12]: induced significant amounts | IL-12p40 induction [13]: induced significant amounts of IL-12p40 | IL-12p40 induction [14]: induced IL-12p40 | CD69 induction [15]: induced significant amounts of CD69 | IL-12p40 induction [16]: induced significant amounts of IL-12p40 | IFN-α induction [17]: not | IL-6 induction [17]: not | IL-12p40 induction [17]: not

5′-CAGGUCUGUGAU-3′ (listed as RNA, chemistry not fully specified) [RNA63]
RNA63-driven CD69 upregulation [22]: still functional | RNA63-driven IL-12p40 production [22]: still functional | RNA63-induced IL-12p40 production in DCs treated with mTLR8-specific siRNA [23]: strong reduction | activation markers such as CD40 in DCs treated with mTLR8-specific siRNA ([23]; RNA63 stimulation): downregulation | CD69 upregulation [24]: failed | IL-12p40 production [24]: failed to produce IL-12p40 | CD69 upregulation [25]: failed | IL-12p40 production [25]: failed to produce IL-12p40
